Laboratory results: US20220202739A1, “ENDOCANNABINOID MIMETIC AND ANTI-INFLAMMATORY COMPOUND CONTAINING COMPOSITIONS, METHODS OF PREPARATION AND USES THEREOF” (priority 2019, published 2022)

How the values were obtained:
CNR1 = conditions: human skin keratinocytes, 10 uM, 24 hr
Description: (§1) Cell cultures: A human skin keratinocyte cell culture (or cultures) is obtained through the ThermoFisher Scientific (Waltham, Mass.) or Promocell GmbH (Heidelberg, Germany). The initial culture was selected from one of the following, C055C, 3C0647, or
(§2) C12003. The cell lines were derived from donors as follows: C055C: Single donor adult 3C0647: Single donor adult, lightly pigmented C12003: Single donor adult
(§3) Culture media: Cells were grown in ready to use Keratinocyte Growth Medium 2 from Promocell GmbH (Heidelberg, Germany) containing basal media supplemented with Bovine Pituitary Extract 0.004 ml/ml, Epidermal Growth Factor (recombinant human) 0.125 ng/ml, Insulin (recombinant human) 5 μg/ml, Hydrocortisone 0.33 μg/ml, Epinephrine 0.39 μg/ml, Transferrin (recombinant human) 10 μg/ml, and CaCl2 0.06 mM. […] All cultures were incubated at 37° C. with 5% CO2 in a humidified chamber.
(§4) Experimental phase: The experimental phase was carried out in accordance with the protocol set forth in the experimental phase section of Example 1.
(§5) The genes tested: Tested genes were the same as tested in Example 1.
(§6) Performance of custom microarray: Performance of custom microarray was carried out in accordance with the protocol set forth in the performance of custom microarray section of Example 1. […]

CNR2 = conditions: human skin keratinocytes, 10 uM, 24 hr
Description: as §1, §2, §3, §4, §5, §6

FAAH = test: Gene expression custom microarray, human skin keratinocytes (Example 2): FAAH; type: cell-based; conditions: 10 uM, 24 hr
Description: as §1, §2, §3, §4, §5, §6

MAGL = test: Gene expression custom microarray, human skin keratinocytes (Example 2): MAGL; type: cell-based; conditions: 10 uM, 24 hr
Description: as §1, §2, §3, §4, §5, §6

IL1A = test: Gene expression custom microarray, human skin keratinocytes (Example 2): IL1A; type: cell-based; conditions: 10 uM, 24 hr
Description: as §1, §2, §3, §4, §5, §6

NFKB1 = test: Gene expression custom microarray, human skin keratinocytes (Example 2): NFKB1; type: cell-based; conditions: 10 uM, 24 hr
Description: as §1, §2, §3, §4, §5, §6

PPARG = test: Gene expression custom microarray, human skin keratinocytes (Example 2): PPARG; type: cell-based; conditions: 10 uM, 24 hr
Description: as §1, §2, §3, §4, §5, §6

PTGS1 = test: Gene expression custom microarray, human skin keratinocytes (Example 2): PTGS1; type: cell-based; conditions: 10 uM, 24 hr
Description: as §1, §2, §3, §4, §5, §6

TRPA1 = test: Gene expression custom microarray, human skin keratinocytes (Example 2): TRPA1; type: cell-based; conditions: 10 uM, 24 hr
Description: as §1, §2, §3, §4, §5, §6

TRPM8 = test: Gene expression custom microarray, human skin keratinocytes (Example 2): TRPM8; type: cell-based; conditions: 10 uM, 24 hr
Description: as §1, §2, §3, §4, §5, §6

TRPV1 [1] = test: Gene expression custom microarray, human skin keratinocytes (Example 2): TRPV1; type: cell-based; conditions: 10 uM, 24 hr
Description: as §1, §2, §3, §4, §5, §6

TRPV1 [2] = test: Gene expression custom microarray, human skin fibroblasts (Example 1): TRPV1; type: cell-based; conditions: 10 uM, 24 hr
Description: Cell cultures: A human skin fibroblast cell culture (or cultures) was obtained through the Coriell Cell Repository from the National Institute on Aging Cell Repository (Camden, N.J.), or Promocell GmbH (Heidelberg, Germany). The initial culture was selected from the following cell lines: AG13066, AG11557, AG11796 or GM03651E. The cell lines were derived from donors as follows:
Experimental phase: When the appropriate quantity of cells had been grown, they were detached as described above, but at the final step were seeded into each well of one or more 6 well dishes. Each well received 2 ml of the cell suspension so they were seeded equally. The dishes were returned to the incubator until 85-95% confluency was reached.
It is at this stage that all wells were rinsed in PBS after aspirating the growth media. The compound(s) to be tested were previously mixed into a suitable solvent (e.g., DMSO or ethanol) that can be diluted to the desired concentration of test compound (10 μl) in the culture wells without exceeding maximum solvent concentrations and adversely effecting cell viability, and mixed with basal media. NOTE: Standard maximum levels of solvent are 0.1% for DMSO and 0.5% for ETOH. The concentration of each test compound is found in Tables 1 & 2.
Every 2 wells on the 6 well plate served as a biological replicate for the purposes of RNA isolation and genetic expression evaluations making each 6 well dish an n=3 for the test compound(s) contained in the media. Negative control plates (no test compound(s) and only basal media) were also generated. The plates were returned to the incubator for 24 hrs.
At the end of the 24 hr time period, the plates were removed from the incubator, the test media aspirated, and the cells rinsed with PBS. RNA isolation is performed using the BioRad Aurum Total RNA Mini Kit (Hercules, Calif.) per manufacturer's protocol; which is described, in brief, below: • Add 350 μl of lysis buffer to each well. Pipet multiple times to ensure thorough lysis. Add lysed cells to the collection tube. • Add 350 μl of 70% ETOH to the collection tube and mix thoroughly. • Pipet the generated lysate onto the spin column placed in a new 2 ml tube. Centrifuge for 30 sec between 8,000 and 10,000 g. • Place the spin column containing the now bound RNA, in a new 2 ml tube. Add 700 μl of low stringency wash solution to the spin column. Centrifuge for 30 sec between 8,000 and 10,000 g. […] Allow 1 minute for saturation of the membrane and then centrifuge for 2 minutes to complete the RNA elution. • Quantify the quantity of RNA and store at −20 C° until use (no more than 1 month) […]

| Structure (SMILES) | CNR1↑ gene expression, fold increase or decrease vs untreated cells (CNR1) [fold] | CNR2↑ gene expression, fold increase or decrease vs untreated cells (CNR2) [fold] | FAAH↓ gene expression, fold increase or decrease vs untreated cells (FAAH) [fold] | MAGL↓ gene expression, fold increase or decrease vs untreated cells (MAGL) [fold] | IL1A↓ gene expression, fold increase or decrease vs untreated cells (IL1A) [fold] | NFKB1↓ gene expression, fold increase or decrease vs untreated cells (NFKB1) [fold] | PPARG↑ gene expression, fold increase or decrease vs untreated cells (PPARG) [fold] | PTGS1↓ gene expression, fold increase or decrease vs untreated cells (PTGS1) [fold] | TRPA1↑ gene expression, fold increase or decrease vs untreated cells (TRPA1) [fold] | TRPM8↑ gene expression, fold increase or decrease vs untreated cells (TRPM8) [fold] | TRPV1↑ gene expression, fold increase or decrease vs untreated cells (TRPV1 [1]) [fold] | TRPV1↑ gene expression, fold increase or decrease vs untreated cells (TRPV1 [2]) [fold] |
| --- | --- | --- | --- | --- | --- | --- | --- | --- | --- | --- | --- | --- |
| C=C(C)[C@@H]1CCC(C)=C[C@H]1c1c(O)cc(CCCCC)cc1O [CBD, cannabidiol, reference compound] | 2.6 | 0 | −3.1 | −2.3 | −1.8 | −1.3 | −4.7 | 2.3 | −1.7 | 2.5 | 2.2 |  |
| CCCCCCCCCCCCCCCC(=O)NCCO [N-palmitoylethanolamide] |  |  |  |  |  |  |  |  |  |  |  | −3.2 |
